Laboratory results: patent US9371336B2, “Compounds for treating spinal muscular atrophy” (PTC Therapeutics Inc., priority 2012, dated 2016)

Assays:
Smn protein = Smn protein assay (HTRF) in cultured cells (SMA patient fibroblasts GM03813); assay type: cell-based, human; conditions: 48 hours; for EC1.5x for Smn protein expression: SMA patient fibroblast cells (GM03813), HTRF, 7-point concentration data, concentration producing 1.5 times Smn protein vs DMSO vehicle control; for maximum fold (Fold) increase of Smn protein: SMA patient fibroblast cells, 7-point concentration curve, relative to vehicle control
Protocol: The Smn HTRF (homogeneous time resolved fluorescence) assay is used to quantify the level of Smn protein in SMA patient fibroblast cells treated with test compounds.
Cells are thawed and cultured in DMEM-10% FBS for 72 hours. Cells are trypsinized, counted and re-suspended to a concentration of 25,000 cells/mL in DMEM-10% FBS. The cell suspension is plated at 5,000 cells per well in a 96 well microtiter plate and incubated for 3 to 5 hours. […] Test compounds are serially diluted 3.16-fold in 100% DMSO to generate a 7-point concentration curve. 1 μL of test compound solution is transferred to cell-containing wells and cells are incubated for 48 hours in a cell culture incubator (37° C., 5% CO2, 100% relative humidity). Triplicate samples are set up for each test compound concentration. After 48 hours, the supernatant is removed from the wells and 25 μL of the RIPA lysis buffer, containing protease inhibitors, is added to the wells and incubated with shaking at room temperature for 1 hour. 25 μL of the diluent is added and then 35 μL of the resulting lysate is transferred to a 384-well plate, where each well contains 5 μL of the antibody solution (1:100 dilution of anti-SMN d2 and anti-SMN kryptate in SMN reconstitution buffer). The plate is centrifuged for 1 minute to bring the solution to the bottom of the wells, then incubated overnight at room temperature. Fluorescence for each well of the plate at 665 nm and 620 nm is measured on an EnVision multilabel plate reader (Perkin-Elmer).
The normalized fluorescence signal is calculated for each sample, Blank and vehicle control well by dividing the signal at 665 nm by the signal at 620 nm. Normalizing the signal accounts for possible fluorescence quenching due to the matrix effect of the lysate. The ΔF value (a measurement of Smn protein abundance as a percent value) for each sample well is calculated by subtracting the normalized average fluorescence for the Blank control wells from the normalized fluorescence for each sample well, then dividing this difference by the normalized average fluorescence for the Blank control wells and multiplying the resulting value by 100. The ΔF value for each sample well represents the Smn protein abundance from test compound-treated samples. The ΔF value for each sample well is divided by the ΔF value for the vehicle control wells to calculate the fold increase in Smn protein abundance relative to the vehicle control.

[1] = test system: SMN2 minigene mRNA (SMN2-A minigene construct); assay: SMN2 minigene mRNA splicing RT-qPCR assay in cultured cells; assay type: cell-based, human; conditions: Homo sapiens, HEK293-H; HEK293H cells stably transfected with SMN2-A minigene, 24 hours, 7-point concentration data; concentration giving 1.5-fold SMN2 full length mRNA relative to vehicle-treated cells; read-out: EC1.5x for production of full length SMN2 mRNA
Protocol: The reverse transcription-quantitative PCR-based (RT-qPCR) assay is used to quantify the level of the full length SMN2 minigene mRNA containing SMN2 exon 7 in a HEK293H cell line stably transfected with said minigene and treated with a test compound.
HEK293H cells stably transfected with the SMN2-A minigene construct described above (10,000 cells/well) are seeded in 200 μL of cell culture medium (DMEM plus 10% FBS, with 200 μg/mL hygromycin) in 96-well flat-bottom plates and the plate is immediately swirled to ensure proper dispersal of cells, forming an even monolayer of cells. Cells are allowed to attach for at least 4-6 hours. Test compounds are serially diluted 3.16-fold in 100% DMSO to generate a 7-point concentration curve. A solution of test compound (1 μL, 200× in DMSO) is added to each cell-containing well and the plate is incubated for 24 hours in a cell culture incubator (37° C., 5% CO2, 100% relative humidity). Two replicates are prepared for each test compound concentration. The cells are then lysed in Cells-To-Ct lysis buffer and the lysate is stored at −80° C.
Primer SMN Forward A (SEQ ID NO. 1) hybridizes to a nucleotide sequence in exon 7 (nucleotide 22 to nucleotide 40), primer SMN Reverse A (SEQ ID NO. 2) hybridizes to a nucleotide sequence in the coding sequence of Firefly luciferase, SMN Probe A (SEQ ID NO. 3) hybridizes to a nucleotide sequence in exon 7 (nucleotide 50 to nucleotide 54) and exon 8 (nucleotide 1 to nucleotide 21). The combination of these three oligonucleotides detects only SMN1 or SMN2 minigenes (RT-qPCR) and will not detect endogenous SMN1 or SMN2 genes.
The SMN forward and reverse primers are used at final concentrations of 0.4 μM. The SMN probe is used at a final concentration of 0.15 μM. The GAPDH primers are used at final concentrations of 0.2 μM and the probe at 0.15 μM.
The SMN2-minigene GAPDH mix (15 μL total volume) is prepared by combining 7.5 μL of 2×RT-PCR buffer, 0.4 μL of 25×RT-PCR enzyme mix, 0.75 μL of 20×GAPDH primer-probe mix, 4.0075 μL of water, 2 μL of 10-fold diluted cell lysate, 0.06 μL of 100 μM SMN forward primer, 0.06 μL of 100 μM SMN reverse primer, and 0.225 μL of 100 μM SMN probe.
PCR is carried out at the following temperatures for the indicated time: Step 1: 48° C. (15 min); Step 2: 95° C. (10 min); Step 3: 95° C. (15 sec); Step 4: 60° C. (1 min); then repeat Steps 3 and 4 for a total of 40 cycles.
Each reaction mixture contains both SMN2-A minigene and GAPDH primers/probe sets (multiplex design), allowing simultaneous measurement of the levels of two transcripts.
Two SMN spliced products are generated from the SMN2 minigene. The first spliced product containing exon 7, corresponding to SMN2 full length mRNA, is referred to herein using the term “SMN2 minigene FL.” The second spliced product lacking exon 7 is referred to herein using the term “SMN2 minigene Δ7.”
The increase of SMN2 minigene FL mRNA relative to that in cells treated with vehicle control is determined from real-time PCR data using a modified ΔΔCt method (as described in Livak and Schmittgen, Methods, 2001, 25:402-8). The amplification efficiency (E) is calculated from the slope of the amplification curve for SMN2 minigene FL and GAPDH individually. The abundances of SMN2 minigene FL and GAPDH are then calculated as (1+E)^−Ct, where Ct is the threshold value for each amplicon. The abundance of SMN2 minigene FL is normalized to GAPDH abundance. The normalized SMN2 minigene FL abundance from test compound-treated samples is then divided by normalized SMN2 minigene FL abundance from vehicle-treated cells to determine the level of SMN2 FL mRNA relative to vehicle control.

SMILES | EC1.5x for Smn protein expression (Smn protein) | maximum fold (Fold) increase of Smn protein (Smn protein) | EC (1.5-fold) [1]
Cl.O=c1oc2nc(N3CCNCC3)ccc2cc1-c1nc2c(Cl)cccc2s1 [Cpd 2, 3-(4-chloro-1,3-benzothiazol-2-yl)-7-(piperazin-1-yl)-2H-pyrano[2,3-b]pyridin-2-one hydrochloride] | **** (an EC1.5×≦0.3 μM is indicated by four stars (****)) | ***** (a fold increase >1.65 is indicated by five stars (*****)) | ≤ 0.1 µM
O=c1oc2nc(N3CCN(CCCl)CC3)ccc2cc1-c1nc2ccccc2s1 [Cpd 4, 3-(1,3-benzothiazol-2-yl)-7-[4-(2-chloroethyl)piperazin-1-yl]-2H-pyrano[2,3-b]pyridin-2-one] |  | ** (a fold increase between >1.2 and ≦1.35 is indicated by two stars (**)) | 1 to 3 µM
CC(C)(C)OC(=O)N1CCN(c2cc3oc(=O)c(-c4nc5ccccc5s4)cc3cn2)CC1 [Cpd 7, tert-butyl 4-[3-(1,3-benzothiazol-2-yl)-2-oxo-2H-pyrano[3,2-c]pyridin-7-yl]piperazine-1-carboxylate] |  | * (A maximum fold increase ≦1.2 is indicated by one star (*)) | 3 to 30 µM
CC(C)(C)OC(=O)N1CCN(c2cc3oc(=O)c(-c4nc5c(Cl)cccc5s4)cc3cn2)CC1 [Cpd 8, tert-butyl 4-[3-(4-chloro-1,3-benzothiazol-2-yl)-2-oxo-2H-pyrano[3,2-c]pyridin-7-yl]piperazine-1-carboxylate] | * (An EC1.5× for Smn protein expression between >3 μM and ≦10 μM is indicated by one star (*)) | ***** (a fold increase >1.65 is indicated by five stars (*****)) | 3 to 30 µM
CN1CCN(c2cc3oc(=O)c(-c4nc5ccccc5s4)cc3cn2)CC1 [Cpd 14, 3-(1,3-benzothiazol-2-yl)-7-(4-methylpiperazin-1-yl)-2H-pyrano[3,2-c]pyridin-2-one] |  | * (A maximum fold increase ≦1.2 is indicated by one star (*)) | 3 to 30 µM
Cl.O=c1oc2nc(N3CCNCC3)ccc2cc1-c1cn2ccccc2n1 [Cpd 28, 3-(imidazo[1,2-a]pyridin-2-yl)-7-(piperazin-1-yl)-2H-pyrano[2,3-b]pyridin-2-one hydrochloride] |  | *** (a fold increase between >1.35 and ≦1.5 is indicated by three stars (***)) | 0.1 to 0.3 µM
Cc1ccc2nc(-c3cc4cnc(N5CCNCC5)cc4oc3=O)cn2c1 [Cpd 33, 3-(6-methylimidazo[1,2-a]pyridin-2-yl)-7-(piperazin-1-yl)-2H-pyrano[3,2-c]pyridin-2-one] | * (An EC1.5× for Smn protein expression between >3 μM and ≦10 μM is indicated by one star (*)) | *** (a fold increase between >1.35 and ≦1.5 is indicated by three stars (***)) | 1 to 3 µM
Cc1cc(Cl)c2nc(-c3cc4cnc(N5CCNCC5)cc4oc3=O)cn2c1.Cl [Cpd 35, 3-(8-chloro-6-methylimidazo[1,2-a]pyridin-2-yl)-7-(piperazin-1-yl)-2H-pyrano[3,2-c]pyridin-2-one hydrochloride] |  | ** (a fold increase between >1.2 and ≦1.35 is indicated by two stars (**)) | 3 to 30 µM
Cc1ccn2cc(-c3cc4cnc(N5CCNCC5)cc4oc3=O)nc2c1.Cl [Cpd 40, 3-(7-methylimidazo[1,2-a]pyridin-2-yl)-7-(piperazin-1-yl)-2H-pyrano[3,2-c]pyridin-2-one hydrochloride] |  | ** (a fold increase between >1.2 and ≦1.35 is indicated by two stars (**)) | 0.3 to 1 µM
Cc1cn2cc(-c3cc4cnc(N5CCNCC5)cc4oc3=O)nc2s1.Cl [Cpd 41, 3-(2-methylimidazo[2,1-b][1,3]thiazol-6-yl)-7-(piperazin-1-yl)-2H-pyrano[3,2-c]pyridin-2-one hydrochloride] |  | ** (a fold increase between >1.2 and ≦1.35 is indicated by two stars (**)) | 0.3 to 1 µM
Cc1ccn2nc(-c3cc4ccc(N5CCNCC5)nc4oc3=O)cc2c1.Cl [Cpd 43, 3-(5-methylpyrazolo[1,5-a]pyridin-2-yl)-7-(piperazin-1-yl)-2H-pyrano[2,3-b]pyridin-2-one hydrochloride] | **** (an EC1.5×≦0.3 μM is indicated by four stars (****)) | **** (a fold increase between >1.5 and ≦1.65 is indicated by four stars (****)) | 0.1 to 0.3 µM
Cl.O=c1oc2nc(N3CCNCC3)ccc2cc1-c1cn2ccsc2n1 [Cpd 44, 3-(imidazo[2,1-b][1,3]thiazol-6-yl)-7-(piperazin-1-yl)-2H-pyrano[2,3-b]pyridin-2-one hydrochloride] | ** (an EC1.5× between >1 and ≦3 μM is indicated by two stars (**)) | *** (a fold increase between >1.35 and ≦1.5 is indicated by three stars (***)) | ≤ 0.1 µM
Cc1ccn2cc(-c3cc4cnc(N5CCN(C)CC5)cc4oc3=O)nc2c1 [Cpd 57, 3-(7-methylimidazo[1,2-a]pyridin-2-yl)-7-(4-methylpiperazin-1-yl)-2H-pyrano[3,2-c]pyridin-2-one] |  | ** (a fold increase between >1.2 and ≦1.35 is indicated by two stars (**)) | 0.3 to 1 µM
Cc1ccn2cc(-c3cc4ccc(N5CCN[C@@H](C)C5)nc4oc3=O)nc2c1 [Cpd 58, 3-(7-methylimidazo[1,2-a]pyridin-2-yl)-7-[(3S)-3-methylpiperazin-1-yl]-2H-pyrano[2,3-b]pyridin-2-one] | **** (an EC1.5×≦0.3 μM is indicated by four stars (****)) | **** (a fold increase between >1.5 and ≦1.65 is indicated by four stars (****)) | ≤ 0.1 µM
